Test results as given in patent US11926612B2, “Heterocyclic apelin receptor (APJ) agonists and uses thereof” (Research Triangle Institute, priority 2016, dated 2024).

Assays:
[1] = target: T1, apelin receptor (APJ) (Homo sapiens, UniProt P35414); test: in vitro activity as apelin agonists (methods of Giddings et al.; Apelin-13 positive control); type: cell-based; conditions: apelin agonist activity, average; read-out: EC50 (nM) Ave
T1 sequence (P35414 1-380): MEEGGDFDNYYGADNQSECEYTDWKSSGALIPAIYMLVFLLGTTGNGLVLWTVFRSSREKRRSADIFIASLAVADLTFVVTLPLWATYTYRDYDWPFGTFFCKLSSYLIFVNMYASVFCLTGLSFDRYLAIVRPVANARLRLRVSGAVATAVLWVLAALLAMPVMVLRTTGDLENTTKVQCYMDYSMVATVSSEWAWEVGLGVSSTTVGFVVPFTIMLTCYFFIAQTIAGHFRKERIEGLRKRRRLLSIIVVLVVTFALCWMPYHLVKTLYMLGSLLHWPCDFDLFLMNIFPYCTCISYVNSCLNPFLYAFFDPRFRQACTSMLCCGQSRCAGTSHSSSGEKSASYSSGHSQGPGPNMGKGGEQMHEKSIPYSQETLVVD
Excerpt: The compounds above were studied for their in vitro activity as apelin agonists using the methods described by Giddings et al. Giddings et al., 2010 Int J High Thro Screen. 1:39-47, the contents of which are hereby incorporated by reference in its entirety. The methods described in Giddings et al. were used as described and Apelin-13 was a positive control.

[2] = Cellular uptake assay: Caco-2 monolayer permeability (A-to-B / B-to-A); type: in vitro ADME; conditions: human, Papp (B-to-A)/Papp (A-to-B), Caco-2, 5 μM, pH 7.4
Description: Caco-2 cells (clone C2BBe1) were obtained from American Type Culture Collection (Manassas, VA). Cell monolayers were grown to confluence on collagen-coated, microporous, polycarbonate membranes in 12-well Costar Transwell plates. Details of the plates and their certification are shown below. The permeability assay buffer was Hanks' balanced salt solution (HBSS) containing 10 mM HEPES and 15 mM glucose at a pH of 7.4. The buffer in the receiver chamber also contained 1% bovine serum albumin. The dosing solution concentration was 5 μM for each test article in the assay buffer. Cell monolayers were dosed on the apical side (A-to-B) or basolateral side (B-to-A) and incubated at 37° C. with 5% CO2 in a humidified incubator. Samples were taken from the donor and receiver chambers at 120 minutes. Each determination was performed in duplicate. After the experiment, all assay buffers were removed from the inserts. Cell monolayers were dosed with blank 500 μM lucifer yellow on the A-to-B side and blank HBSS on the B-to-A side and incubated at 37° C. Samples were taken from the B-to-A side at 60 minutes. The flux of lucifer yellow was measured for each monolayer to ensure no damage was inflicted to the cell monolayers during the flux period. All samples were analyzed by LC-MS/MS using electrospray ionization. The apparent permeability (Papp) and percent recovery were calculated as follows: Papp=(dCr/dt)×Vr/(A×CA) (1) Percent Recovery=100×((Vr×Cr^final)+(Vd×Cd^final))/(Vd×CN) (2)
Where, dCr/dt is the slope of the cumulative concentration in the receiver compartment versus time in M s^−1;
Vr is the volume of the receiver compartment in cm^3;
Vd is the volume of the donor compartment in cm^3;
A is the area of the insert (1.13 cm^2 for 12-well Transwell);
CA is the average of the nominal dosing concentration and the measured 120-minute donor concentration in μM;
CN is the nominal concentration of the dosing solution in M;
Cr^final is the cumulative receiver concentration in M at the end of the incubation period;
Cd^final is the concentration of the donor in μM at the end of the incubation period.
Efflux ratio (ER) is defined as Papp (B-to-A)/Papp (A-to-B).
Absorption Potential Classification:
Papp (A-to-B)<1.0×10^−6 cm/s: Low
Papp (A-to-B) ≥1.0×10^−6 cm/s: High
Significant Efflux is defined as: ER≥2.0 and Papp (B-to-A)≥1.0×10^−6 cm/

EC50 [1]	efflux ratio at 120 min, 5 μM [2]	Compound
15 nM	4	O=C(C[C@H](CCN1CCCC(F)(F)C1)NC(=O)c1cn(-c2ccccc2C(F)(F)F)c(C2CCCC2)n1)NC1CCC1 [compound 472, (3S)-N-cyclobutyl-3-({2-cyclopentyl-1-[2-(trifluoromethyl)phenyl]-1H-imidazol-4-yl}formamido)-5-(3,3-difluoropiperidin-1-yl)pentanamide]
7.5 nM	46	O=C(C[C@H](CCN1CCCC(F)(F)C1)NC(=O)c1nc(-c2ncccc2C(F)(F)F)n(C2CCCC2)n1)NC1CCC1 [compound 530, (3S)-N-cyclobutyl-3-({1-cyclopentyl-5-[3-(trifluoromethyl)pyridin-2-yl]-1H-1,2,4-triazol-3-yl}formamido)-5-(3,3-difluoropiperidin-1-yl)pentanamide]
46 nM	7	O=C(O)C[C@H](CCN1CCCC(F)(F)C1)NC(=O)c1nc(C2CCCC2)n(-c2ccccc2C(F)(F)F)n1 [compound 461, (3S)-3-({5-cyclopentyl-1-[2-(trifluoromethyl)phenyl]-1H-1,2,4-triazol-3-yl}formamido)-5-(3,3-difluoropiperidin-1-yl)pentanoic acid]
9 nM	17	O=C(N[C@@H](CCN1CCCC(F)(F)C1)Cc1nnn[nH]1)c1nc(C2CCCC2)n(-c2ccccc2C(F)(F)F)n1 [compound 616, 5-cyclopentyl-N-[(2S)-4-(3,3-difluoropiperidin-1-yl)-1-(1H-1,2,3,4-tetrazol-5-yl)butan-2-yl]-1-[2-(trifluoromethyl)phenyl]-1H-1,2,4-triazole-3-carboxamide]
